According to ChEMBL document CHEMBL1140148, “Structure-activity studies on a series of a 2-aminopyrimidine-containing histamine H4 receptor ligands” (J Med Chem, 2008):
Blank lines part the entries; values can stand above or below the compound they belong to.

How the values were obtained:
[1] = target: Histamine H4 receptor (Rattus norvegicus) (UniProt Q91ZY1); details: HEK293
Histamine H4 receptor [2] = target: T1, Histamine H4 receptor (Homo sapiens, UniProt Q9H3N8); details: HEK293
[3] = target: Histamine H4 receptor (Rattus norvegicus) (UniProt Q91ZY1); assay: (§1) Agonist activity at rat histamine H4 receptor expressed in HEK293 cells coexpressing Gqi5 protein assessed as calcium flux by FLIPR assay; format: functional, cell-based
Histamine H4 receptor [4] = target: T1, Histamine H4 receptor; assay: Agonist activity at human histamine H4 receptor expressed in HEK293 cells coexpressing Gqi5 protein assessed as calcium flux by FLIPR assay relative to histamine; format: functional, cell-based
Histamine H4 receptor [5] = target: T1, Histamine H4 receptor; assay: Agonist activity at human histamine H4 receptor expressed in HEK293 cells coexpressing Gqi5 protein assessed as calcium flux by FLIPR assay; format: functional, cell-based
Rattus norvegicus [6] = assay: Plasma concentration in rat at 30 umol/kg, ip; format: ADME, organism-based; details: in vivo
Rattus norvegicus [7] = assay: Plasma concentration in rat at 100 umol/kg, ip; format: ADME, organism-based; details: in vivo
[8] = Protein binding in ip dosed rat plasma; format: ADME, organism-based; details: read-out: PPB (converted)
Rattus norvegicus [9] = assay: Plasma concentration in rat at 80 umol/kg, ip; format: ADME, organism-based; details: in vivo
Rattus norvegicus [10] = assay: Antiinflammatory activity against carrageenan-induced hyperalgesia in rat assessed as increase in paw withdrawal at 300 umol/kg, ip relative to control; format: functional
Rattus norvegicus [11] = assay: Plasma concentration in rat at 300 umol/kg, ip; format: ADME, organism-based; details: in vivo
[12] = Terminal volume of distribution in rat at 10 mg/kg, iv; format: ADME, organism-based; parameters: dose 10 mg/kg, route intravenous; details: in vivo, read-out: Vbeta
[13] = Terminal volume of distribution in mouse at 5 mg/kg, iv; format: ADME, organism-based; parameters: dose 5 mg/kg, route intravenous; details: in vivo, read-out: Vbeta
[14] = Cmax in rat at 10 mg/kg, iv; format: ADME, organism-based; parameters: dose 10 mg/kg, route intravenous; details: in vivo
[15] = Cmax in mouse at 5 mg/kg, iv; format: ADME, organism-based; parameters: dose 5 mg/kg, route intravenous; details: in vivo
[16] = Half life in rat at 10 mg/kg, iv; format: ADME, organism-based; parameters: dose 10 mg/kg, route intravenous; details: in vivo
[17] = Half life in mouse at 5 mg/kg, iv; format: ADME, organism-based; parameters: dose 5 mg/kg, route intravenous; details: in vivo
[18] = Tmax in rat at 10 mg/kg, po; format: ADME, organism-based; parameters: dose 10 mg/kg, route oral; details: in vivo
[19] = Tmax in mouse at 20 mg/kg, po; format: ADME, organism-based; parameters: dose 20 mg/kg, route oral; details: in vivo
[20] = Bioavailability in rat at 10 mg/kg, po; format: ADME, organism-based; details: in vivo
[21] = Bioavailability in mouse at 20 mg/kg, po; format: ADME, organism-based; details: in vivo
[22] = Cmax in rat at 10 mg/kg, po; format: ADME, organism-based; parameters: dose 10 mg/kg, route oral; details: in vivo
[23] = Cmax in mouse at 20 mg/kg, po; format: ADME, organism-based; parameters: dose 20 mg/kg, route oral; details: in vivo
[24] = Half life in rat at 10 mg/kg, po; format: ADME, organism-based; parameters: dose 10 mg/kg, route oral; details: in vivo
[25] = Half life in mouse at 20 mg/kg, po; format: ADME, organism-based; parameters: dose 20 mg/kg, route oral; details: in vivo
Histamine H3 receptor [26] = target: Histamine H3 receptor (Homo sapiens, UniProt Q9Y5N1); assay: Binding affinity to human histamine H3 receptor
Mus musculus [27] = assay: Antiinflammatory activity in zymosan-induced peritonitis in sc dosed BALB/c mouse model assessed as decrease in myeloperoxidase activity in peritoneal lavage; format: functional
Mus musculus [28] = assay: Antiinflammatory activity in ip dosed CD1/ICR mouse assessed as reduction of clobenpropit-induced itching; format: functional
[29] = Plasma concentration in mouse at 25 umol/kg, ip after 30 mins; format: ADME, organism-based
Rattus norvegicus [30] = assay: Antiinflammatory activity against carrageenan-induced thermal hyperalgesia in rat assessed as increase in paw withdrawal at 100 umol/kg, ip relative to control; format: functional
Rattus norvegicus [31] = assay: Antiinflammatory activity against carrageenan-induced thermal hyperalgesia in ip dosed rat assessed as increase in paw withdrawal; format: functional
Brain = assay: Drug level in rat brain assessed as metabolism to 4-(2-amino-6-(piperazin-1-yl)pyrimidin-4-yl)benzonitrile at 30 umol/kg, ip; format: ADME, organism-based; details: in vivo
Histamine H4 receptor [32] = target: T2, Histamine H4 receptor (Rattus norvegicus, UniProt Q91ZY1); assay: as §1; format: functional, cell-based
[33] = target: Histamine H4 receptor (Rattus norvegicus) (UniProt Q91ZY1); assay: Agonist activity at rat histamine H4 receptor expressed in HEK293 cells coexpressing Gqi5 protein assessed as calcium flux by FLIPR assay relative to histamine; format: functional, cell-based
Histamine H4 receptor [34] = target: Histamine H4 receptor (Mus musculus, UniProt Q91ZY2); assay: Agonist activity at mouse histamine H4 receptor expressed in HEK293 cells coexpressing Gqi5 protein assessed as calcium flux by FLIPR assay; format: functional, cell-based
Histamine H4 receptor [35] = target: T1, Histamine H4 receptor; assay: Displacement of [3H]histamine from human histamine H4 receptor expressed in HEK293 cells; format: cell-based
Histamine H4 receptor [36] = target: T2, Histamine H4 receptor; assay: Displacement of [3H]histamine from rat histamine H4 receptor expressed in HEK293 cells; format: cell-based
Histamine H3 receptor [37] = target: Histamine H3 receptor (Rattus norvegicus, UniProt Q9QYN8); assay: Binding affinity to rat histamine H3 receptor
Sequence of Histamine H3 receptor (Rattus norvegicus, UniProt Q9QYN8) (Q9QYN8 whole entry): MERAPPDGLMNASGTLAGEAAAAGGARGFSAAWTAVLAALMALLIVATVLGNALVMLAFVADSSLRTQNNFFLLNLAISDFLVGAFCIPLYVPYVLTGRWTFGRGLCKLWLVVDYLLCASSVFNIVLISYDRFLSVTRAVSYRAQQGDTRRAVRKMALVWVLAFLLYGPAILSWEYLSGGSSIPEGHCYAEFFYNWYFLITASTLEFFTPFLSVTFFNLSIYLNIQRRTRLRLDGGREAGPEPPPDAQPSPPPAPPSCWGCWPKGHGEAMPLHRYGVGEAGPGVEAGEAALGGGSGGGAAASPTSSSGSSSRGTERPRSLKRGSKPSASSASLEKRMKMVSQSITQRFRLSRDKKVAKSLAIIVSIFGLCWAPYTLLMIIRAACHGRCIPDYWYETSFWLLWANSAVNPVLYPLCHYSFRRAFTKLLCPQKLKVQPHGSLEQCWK

Sequence of Histamine H4 receptor (Rattus norvegicus) (Q91ZY1 whole entry): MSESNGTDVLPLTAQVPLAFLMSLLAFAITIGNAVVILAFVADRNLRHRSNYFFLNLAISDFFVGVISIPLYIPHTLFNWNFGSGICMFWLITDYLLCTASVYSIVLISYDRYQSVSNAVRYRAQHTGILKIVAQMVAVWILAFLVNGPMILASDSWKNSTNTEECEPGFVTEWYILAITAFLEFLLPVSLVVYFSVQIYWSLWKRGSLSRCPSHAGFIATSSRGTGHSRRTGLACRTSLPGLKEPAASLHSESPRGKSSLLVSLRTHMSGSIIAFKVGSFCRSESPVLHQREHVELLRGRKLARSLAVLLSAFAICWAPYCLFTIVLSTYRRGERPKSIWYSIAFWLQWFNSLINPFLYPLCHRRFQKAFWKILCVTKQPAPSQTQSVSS
Sequence of Histamine H3 receptor (Homo sapiens, UniProt Q9Y5N1) (Q9Y5N1 whole entry): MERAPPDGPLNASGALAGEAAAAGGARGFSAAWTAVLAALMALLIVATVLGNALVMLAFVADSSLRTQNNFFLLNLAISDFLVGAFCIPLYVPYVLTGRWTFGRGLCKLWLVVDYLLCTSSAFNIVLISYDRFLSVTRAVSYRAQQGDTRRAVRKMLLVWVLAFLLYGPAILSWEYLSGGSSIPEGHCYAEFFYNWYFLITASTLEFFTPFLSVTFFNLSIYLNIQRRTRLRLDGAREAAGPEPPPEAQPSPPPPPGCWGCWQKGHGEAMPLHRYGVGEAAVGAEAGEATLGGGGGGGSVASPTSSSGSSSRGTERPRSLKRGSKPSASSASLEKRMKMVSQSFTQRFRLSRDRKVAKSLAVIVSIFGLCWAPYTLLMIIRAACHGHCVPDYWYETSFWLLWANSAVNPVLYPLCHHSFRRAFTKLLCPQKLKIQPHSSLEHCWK
T2 sequence (Q91ZY1 whole entry): as the sequence (Q91ZY1 whole entry) above
Sequence of Histamine H4 receptor (Mus musculus, UniProt Q91ZY2) (Q91ZY2 whole entry): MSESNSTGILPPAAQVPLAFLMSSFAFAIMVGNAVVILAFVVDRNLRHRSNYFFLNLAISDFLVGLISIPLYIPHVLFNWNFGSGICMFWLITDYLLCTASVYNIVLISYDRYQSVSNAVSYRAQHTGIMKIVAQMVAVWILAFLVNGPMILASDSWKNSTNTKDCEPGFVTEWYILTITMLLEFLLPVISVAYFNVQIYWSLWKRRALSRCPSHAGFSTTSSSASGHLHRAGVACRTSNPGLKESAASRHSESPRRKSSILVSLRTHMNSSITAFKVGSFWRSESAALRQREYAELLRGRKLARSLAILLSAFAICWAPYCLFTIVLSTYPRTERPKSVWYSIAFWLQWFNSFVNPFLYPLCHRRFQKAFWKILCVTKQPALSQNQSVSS

pKb [1]: 5.72
pKb (Histamine H4 receptor [2]): 6.79
Compound: CN1CCN(c2cc(-c3ccccc3-c3ccccc3)nc(N)n2)CC1

pKb [1]: 5.74
pKb (Histamine H4 receptor [2]): 5.68
Compound: CN1CCN(c2cc(-n3cnc(-c4ccccc4)c3)nc(N)n2)CC1

pKb [3]: 5.39
Efficacy (Histamine H4 receptor [4]): 56%
EC50 (Histamine H4 receptor [5]): 2340 nM
Compound: CN1CCN(c2cc(-c3ccc(C#N)cc3)cc(N)n2)CC1

Cp (Rattus norvegicus [6]): 432 ng/mL
Cp (Rattus norvegicus [7]): 1454 ng/mL
fraction unbound [8]: 0.28
Cp (Rattus norvegicus [9]): 1200 ng/mL
Cp (Rattus norvegicus [11]): 4135 ng/mL
Vd [12]: 37 L/kg
Vd [13]: 24 L/kg
Cmax [14]: 1140 ng/mL
Cmax [15]: 560 ng/mL
half-life [16]: 102 min
half-life [17]: 42 min
Tmax [18]: 15 min
Tmax [19]: 1.33 h
bioavailability [20]: 47%
bioavailability [21]: 24%
Cmax [22]: 220 ng/mL
Cmax [23]: 140 ng/mL
half-life [24]: 150 min
half-life [25]: 84 min
Ki (Histamine H3 receptor [26]): 2240 nM
concentration at 0.5 h [29]: 860 ng/mL
Compound: CN1CCN(C(=O)c2cc3cc(Cl)ccc3[nH]2)CC1 [JNJ-7777120]
Activity (Rattus norvegicus [10]): 96%
ED50 (Mus musculus [27]): 61 µmol/kg
ED50 (Mus musculus [28]): 25 µmol/kg
Activity (Rattus norvegicus [30]): 49%
ED50 (Rattus norvegicus [31]): 80 µmol/kg

pKb [1]: 5.14
pKb (Histamine H4 receptor [2]): 5.05
Compound: CN1CCN(c2cc(N)cc(-c3ccc(C#N)cc3)n2)CC1

pKb [1]: 6.47
pKb (Histamine H4 receptor [2]): 6.77
Compound: CN1CCN(c2cc(N(C)Cc3ccccc3)nc(N)n2)CC1

Drug uptake (Brain): 610 ng/mL
EC50 (Histamine H4 receptor [32]): 245 nM
Efficacy [33]: 67%
EC50 (Histamine H4 receptor [34]): 102 nM
Ki (Histamine H4 receptor [35]): 41.7 nM
Ki (Histamine H4 receptor [36]): 339 nM
Ki (Histamine H3 receptor [26]): 933 nM
Ki (Histamine H3 receptor [37]): 120 nM
pKb (Histamine H4 receptor [2]): 8.08
Compound: N#Cc1ccc(-c2cc(N3CCNCC3)nc(N)n2)cc1
